Measured values as given in patent US11236055B2 (Venenum Biodesign, LLC, priority 2016, dated 2022).

Tests used:
human TGR5 receptor = target: T1, human TGR5 receptor (Homo sapiens, UniProt Q8TDU6); assay: Human TGR5 cAMP production assay; type: cell-based; conditions: human TGR5, luminescent cAMP assay; coded A-D; read-out: Human TGR5 Lum. cAMP Activity (EC50)
T1 construct: host or cells: CHO-K1 (hTGR5-CHO cells)
T1 sequence (Q8TDU6 1-330): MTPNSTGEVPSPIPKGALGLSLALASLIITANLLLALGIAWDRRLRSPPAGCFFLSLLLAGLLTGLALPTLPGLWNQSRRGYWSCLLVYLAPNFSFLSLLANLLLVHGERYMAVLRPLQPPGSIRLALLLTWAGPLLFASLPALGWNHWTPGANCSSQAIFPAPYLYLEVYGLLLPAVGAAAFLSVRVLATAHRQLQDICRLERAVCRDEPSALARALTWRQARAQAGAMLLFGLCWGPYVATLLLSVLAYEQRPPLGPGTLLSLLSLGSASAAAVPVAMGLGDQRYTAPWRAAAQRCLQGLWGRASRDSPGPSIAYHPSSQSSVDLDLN
Method in brief: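 Intracellular cAMP read by luminescent enzyme-complementation (XS+) after overnight development, following 1 h room-temperature compound treatment of hTGR5-CHO-K1 cells in IBMX plus anti-cAMP antibody. Compounds tested as half-log dilution series; EC50 derived.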

mouse TGR5 receptor [1] = target: T2, mouse TGR5 receptor (Mus musculus, UniProt Q80SS6); assay: Mouse TGR5 cAMP production assay (luminescent, DiscoveRx cAMP XS+); type: cell-based; conditions: HEK293-EBNA cells overexpressing mouse TGR5, luminescent cAMP XS+; coded A-D; read-out: Mouse TGR5 Lum. cAMP Activity (EC50)
T2 construct: expressed in transfected cells; host or cells: HEK293-EBNA (293 c18, ATCC CRL10852), Hygromycin B selection
T2 sequence (Q80SS6 1-329): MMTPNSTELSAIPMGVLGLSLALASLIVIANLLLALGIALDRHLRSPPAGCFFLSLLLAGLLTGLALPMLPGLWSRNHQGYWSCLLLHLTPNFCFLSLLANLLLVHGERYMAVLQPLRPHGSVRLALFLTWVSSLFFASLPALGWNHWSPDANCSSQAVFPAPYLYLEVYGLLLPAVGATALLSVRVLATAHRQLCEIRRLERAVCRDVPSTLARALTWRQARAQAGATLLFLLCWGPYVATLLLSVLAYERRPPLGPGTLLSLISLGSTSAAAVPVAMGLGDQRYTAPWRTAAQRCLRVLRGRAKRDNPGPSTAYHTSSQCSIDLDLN
Method in brief: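 HEK293-EBNA cells stably expressing mouse TGR5 were suspended in serum-free DMEM with 500 μM IBMX and preincubated 20 min with cAMP antibody. They were then exposed to half-log compound dilutions for 1 h at room temperature. cAMP measured by enzyme-fragment complementation luminescence after overnight incubation; EC50 derived.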

Mouse STC-1 cells = assay: STC-1 GLP-1 assay; type: cell-based; conditions: GLP-1 secretion, 2 h, coded A-C, read-out: Mouse STC-1 HTRF GLP-1 Activity (EC50)
Procedure: We evaluated Compounds of the present invention for their ability to induce GLP-1 production in mouse intestinal neuroendocrine tumor cells. Mouse STC-1 cells were cultured and maintained in high glucose DMEM (Sigma #5796) supplemented with 15% horse serum, 5% Fetal Bovine Serum (FBS), 1% penicillin/streptomycin, and 2 mM L-alanine L-glutamine (GlutaMax). Two days prior to analysis of GLP-1 secretion cells were harvested using Accutase (Sigma), spun down then resuspended in high glucose DMEM media containing 2 mM L-alanine L-glutamine (GlutaMax), 10% charcoal-dextran stripped FBS, and 50 μg/mL Gentamicin, at a density of 100,000 cells/mL. 100 μL of cell suspension was added to each well of a 96-well Poly-D-Lysine coated culture plate (Sigma; cat #2382493) and was incubated at 37° C. with 5% CO2.
Compounds were initially diluted in 100% DMSO (12-point serial dilution by half logs) in a 96-well plate and then were further diluted 1:500 in Hanks' Balanced Salt Solution (HBSS) containing protease inhibitor cocktail, DPP-IV inhibitor, and 0.1% fatty acid free bovine serum albumin. On the day of the experiment cells were washed once with HBSS. After wash, 100 μL of test compound was added to each well. The plate was incubated at 37° C. with 5% CO2 for 2 h. Supernatants were collected and GLP-1 secretion was measured using the Cisbio™ Active GLP-1 HTRF Assay Kit (Cisbio). Briefly, Anti-GLP-1-d2 conjugate and Anti-GLP-1 Terbium Cryptate conjugate stock solutions were prepared as per kit instructions. The two solutions were pre-mixed and 10 μL were transferred to a 384-well low volume plate (Greiner; cat #784075). 10 μL of collected supernatants were added to wells already containing the conjugate solution. The plate was covered and incubated at room temperature overnight. The plate was read on an Envision™ plate reader (Perkin Elmer).
In Table 34, EC50 values obtained from the STC-1 GLP-1 production assay for compounds of the present invention are summarized.

[2] = Absorption vs. first pass metabolism: Cmax with and without 1-aminobenzotriazole (ABT) pre-treatment; type: in vivo, mouse; conditions: ICR mice, ABT 150 mg/kg p.o. 2 h before; compound 10 mg/kg p.o.
Procedure: Absorption Vs. First Pass Metabolism
In this study, the absorption was examined as compared to first pass metabolism of the compounds of the present invention. ICR mice (Hilltop) were pre-treated with 1-aminobenzotriazole (ABT), a nonselective inhibitor of cytochrome P450 enzymes to inhibit Cyp450-mediated degradation of the compounds in liver.
ABT was administered at 150 mg/kg in 5 mL/kg of 0.04% ethanol in 0.5% methyl cellulose (w/v) by oral gavage, 2 hours prior to test compound administration. The compounds 20AA and 20AC were administered by oral gavage at 10 mg/kg in 10 mL/kg of 20% PEG400/80% (0.5% (w/v) CMC containing 0.25% (v/v) Tween 80) (v/v), 2 hours after the ABT treatment. Blood was collected via orbital bleeding at predose, 0.25, 0.5, 1, 2, and 4 hours post-dose and the quantification of compound levels in plasma was accomplished by means of LC-MS/MS analysis as described in Example 59. Reference compound “Propranolol” that is known to be metabolized by Cyp450 was used as a positive control.
FIG. 4 depicts the Cmax (nM) of the compounds of the present invention with and without ABT pre-treatment.

mouse TGR5 receptor [3] = target: T2, mouse TGR5 receptor; assay: Mouse TGR5 cAMP production assay (HTRF, Cisbio cAMP HiRange); type: cell-based; conditions: HEK293-EBNA cells overexpressing mouse TGR5, HTRF cAMP HiRange; coded A-D
Method in brief: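 cAMP read by HTRF competition after 1 h room-temperature compound exposure of mouse TGR5-overexpressing HEK293-EBNA cells. Cells were suspended in serum-free DMEM containing 500 μM IBMX; compounds ran as 12-point half-log dilutions in duplicate; EC50 derived.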

EC50 (human TGR5 receptor) [nM]	EC50 (mouse TGR5 receptor [1]) [nM]	EC50 (Mouse STC-1 cells) [nM]	Cmax with versus without ABT pre-treatment [2]	EC50 (mouse TGR5 receptor [3]) [nM]	Structure (SMILES)
< 100	100 to 999	100 to 999			CCOc1cnccc1-c1cccc(C(C)(C)NS(=O)(=O)c2ccccc2C(F)(F)F)c1 [Compound 8AC, N-(2-(3-(3-ethoxypyridin-4-yl)phenyl)propan-2-yl)-2-(trifluoromethyl)benzenesulfonamide]
< 100	100 to 999	1000 to 30000			COc1cnccc1-c1cccc([C@H](C)NS(=O)(=O)c2ccccc2C(F)(F)F)c1 [Compound 2BQ]
			significantly higher		CC(C)NCC(O)COc1cccc2ccccc12 (stereo not shown) [propranolol, Propranolol, reference compound]
< 100	< 100	1000 to 30000			COc1cnccc1-c1cccc(C(C)(C)NS(=O)(=O)c2ccccc2[N+](=O)[O-])c1 [Compound 2AU]
< 100	100 to 999	1000 to 30000			COc1cnccc1-c1cccc(C(C)(C)NS(=O)(=O)c2ccccc2C(F)(F)F)c1 [Compound 2AV]
< 100		1000 to 30000		< 100	CC[C@H](NS(=O)(=O)c1ccccc1C(F)(F)F)c1cccc(-c2ccncc2C)c1 [Compound 5AW, (S)-N-(1-(3-(3-methylpyridin-4-yl)phenyl)propyl)-2-(trifluoromethyl)benzenesulfonamide]
< 100		1000 to 30000		100 to 999	Cc1cnccc1-c1cccc(C(NS(=O)(=O)c2ccccc2C(F)(F)F)C2CC2)c1 (racemic) [Compound 5AV, (+/−)N-(cyclopropyl(3-(3-methylpyridin-4-yl)phenyl)-methyl)-2-(trifluoromethyl)benzenesulfonamide]
